Reference: patent US8273340B2, “Methods and compositions for attracting or repelling cockroaches” (The United States of America, as represented by the …, priority 2008, dated 2012)

Legend:
cockroach = assay: Bioassays for cockroach attraction of attractants sorbed into thermoplastic polymers; assay type: in vivo
From the text: To alleviate the reactivity with the carrier polymers, we attempted to load active compounds into a series of thermoplastic polymers including urethanes and synthetic rubbers, based on the behavior of the active compounds as plasticizers. […] Propyl propanoate, methyl hexanoate, and methyl tiglate were loaded into a series of thermoplastic granulated feed materials, including 4-(1,1,3,3-tetramethylbutyl) with ethylene-5-ethylidenebicyclo[2.2.1]hept-2-ene-propene thermoplastic synthetic rubber (Santopren™ 203-40). Santoprene™ is a thermoplastic elastomer (TPE that is a mixture of in-situ cross linking of EPDM rubber and polypropylene compounds). Because of the longer life of Santopren™ in both extreme hot and cold environments, it is often preferred over the use of rubber. Pellethane™ 2102-55D is a polyester polycaprolactone polyurethane. Methyl hexanoate and methyl tiglate were sorbed using heat and pressure (60° C., 40 psi, 30 min) into the Santoprene® and were effective in bioassays for cockroach attraction. […] Loading rates of active compounds into the Santoprene®, using slightly elevated temperature (60° C.) and 40 psi pressure, were 8-12% by wt for the two compounds.

[1] = Release rate of attractants from sustained release delivery systems; assay type: physicochemical
From the text: Several secondary release rate control systems were developed. The first was a sachet that can contain the above polymer releasing system. This sachet can be either polyvinylidine chloride (PvdC) barrier film (e.g., Saranex™) enclosed in a thermally sealed metalized polyethylene container to eliminate release of active compounds, or a metalized polyethylene sachet with a removable seal that covers a vapor diffusion controlling orifice which when removed begins the release process from the internal polymer/carrier, or metalized polyethylene sachet which contains a small vial with a vapor controlling orifice. In the case of the Saranex™ sachet, the actual porosity of the Saranex™ control release is based on type of PVdC and thickness of the film. In the case of the metalized polyethylene sachet and internal polymer/carrier, a specific orifice size controlled the rate of diffusion of the active from the device, as shown in FIG. 4. An additional means of containing and reducing the release of the liquid active compounds and providing a solid support for use in the above delivery system involved sorbing the active compounds into an inert absorbent such as Membrana GmbH's expanded microporous polyolefin Accurel® MP100 which are granular or pelletized polyethylenes that have 10-50 μm air pockets throughout and can contain up to 90% of their volume in active compounds . MP100 was easily loaded with 80% by wt active ingredient due to its porosity. […] Thus, placement into the metalized polyethylene sachet with its diffusion regulating orifice was required.
Active compounds (1 gm active in Accurel® MP100) were sealed within the metalized polyethylene sachet, and a 0.5 mm hole placed into the film, and sealed until use with a metalized tape. Release rates for propyl propanoate, methyl tiglate, and butyl hexanoate were calculated at 15.5, 11.4, and 4.8 mg/day, respectively. Longevity of this system was calculated to be 64, 87, and 208 days, respectively.
Release rates for the thermoset urethane (Flexane® 80P) and synthetic rubbers systems ranged from 0.055 to 0.2 mg/cm^2/day, depending on durometer/hardness that is a measure of polymer crosslinking. Best results were obtained at durometer/hardness levels above D30. Release rates for the Saranex system without the release control provided by the metalized polyethylene and diffusion control orifice were 187, 236, and 7 mg/day for propyl propanoate, methyl tiglate, and butyl hexanoate, respectively.

[2] = test system: Male cockroaches (Blattela germanica); assay: Y-tube olfactometer bioassay of controlled release pellets aged in a fume hood; assay type: in vivo; conditions: for Percent Response: mean of 3 replicates; for activity in the olfactometer (in words): charcoal as the absorbent, after one hour in the fume hood
From the text: Olfactometer Bioassay: The Y-tube bioassay apparatus was similar to that described by Vander Meer et al. (J. Chem. Ecol., 14: 825-838 (1988)). Compressed air (breathing-air quality) was passed into the two choice arms at 0.2 l/min for a total flow of 0.4 l/min. Flow rates were adjusted and controlled by two flow meters (Omega Engineering, Inc.). All tubing carrying the air was either copper or Teflon. Prior to evaluating treatment samples, a positive standard was put through the bioassay procedure. The standard was initially an attractive food material (grape flavoring concentrate used at 0.33%) and later 0.5% (w/v) methyl tiglate, one of the compounds of the present invention, in white, light mineral oil (Aldrich Chemical Co.). […] Test samples (10.0 μl) and the solvent blank (mineral oil, 10.0 μl) were applied to filter paper strips (0.3×1.0 cm, Whatman No. 1) and then each was placed into one of the two choice arms. Male cockroaches (Blattela germanica) were prepared for their introduction into the olfactometer by placing them in a Teflon tube (3 cm×0.8 cm) that had one end blocked with a piece of copper mesh screen. The open end of tube was closed with a lightly attached piece of tape. The cockroaches were introduced individually by removing the tape and quickly inserting the Teflon tube into the entrance arm of the olfactometer. […] The initial choice of the cockroach was recorded. The cockroach was removed and the process was repeated 10 times with the same test and blank samples. The 10 choices usually required less than 5 minutes to complete. After each set of 10 cockroaches had made their choice, the olfactometer was rinsed with acetone, dried, and reassembled for the next test. Each sample was retested with the same cockroaches, but with the sample and control in reverse positions. The sum of the results from the two tests represented one replicate. This procedure minimized bias inherent in the apparatus. A null hypothesis of equal numbers of cockroaches in each arm was tested with chi-square analysis. […] Results in-between were neutral.
Controlled Release Formulations: Four esters found to be significant cockroach attractants were selected for evaluation in controlled release formulations-developed by BioGuard, Inc. Six controlled release formulations from BioGuard were evaluated in the olfactometer. The attractants were methyl tiglate, butyl hexanoate, propyl propanoate, and butyl heptanoate. The attractants were absorbed to either coconut shell charcoal pellets or potassium substituted crystalline zeolite pellets, and then coated with water soluble methylcellulose. The powdered methyl cellulose was dissolved in 80° C. water until saturation, cooled to approx 25° C., the pellets immersed into the solution for a 30 sec, and removed and rapidly air dried with 30° C. pre-dried air. The end products were pellets (charcoal=2 mm×4 mm dia.; molecular sieve=4 mm×1.5 mm dia.). […] A single pellet was used in place of the filter paper described above. The control side was left blank.

[3] = sorbed into Santoprene (60° C., 40 psi, 30 min)
[4] = 1 gm active in Accurel MP100 in metalized polyethylene sachet with 0.5 mm hole
[5] = 1 gm active in Accurel MP100 in metalized polyethylene sachet with 0.5 mm hole, FIG. 3
[6] = Saranex system without metalized polyethylene and diffusion control orifice
[7] = Charcoal absorbent, methylcellulose coated pellet, aged 1 hour in fume hood
[8] = Molecular Sieve absorbent, methylcellulose coated pellet, aged 1 hour in fume hood

| SMILES | effect in bioassays for cockroach attraction (in words) (cockroach; loaded into Dow Pellethane) | effect in bioassays for cockroach attraction (in words) (cockroach; [3]) | Longevity of the release system [1, 4] [days] | Release rate [1, 5] [mg/day] | Release rate [1, 6] [mg/day] | Percent Response [2, 7] [%] | Percent Response [2, 8] [%] | activity in the olfactometer (in words) [2] | Percent Response ([2]; charcoal controlled release formulation, aged 24 hours in fume hood) [%] | Percent Response ([2]; charcoal controlled release formulation, aged 48 hours in fume hood) [%] |
| --- | --- | --- | --- | --- | --- | --- | --- | --- | --- | --- |
| CCCOC(=O)CC [Propyl Propanoate] | neither of these systems worked well | neither of these systems worked well | 64 | 15.5 | 187 | 65.0 | 50.0 | significantly active | – | – |
| C/C=C(\C)C(=O)OC [methyl tiglate, methyl ester of tiglic acid (trans-2-methyl-2-butenoic acid (methyl tiglate))] | worked less well | effective | 87 | 11.4 | 236 | 76.6 | 50.0 | significantly active | 66.7 | 61.6 |
